Laboratory results taken from ChEMBL document CHEMBL1201862, “PubChem BioAssay data set” (2004).
Active and inactive are the calls of the source.

Assays:
[1] = A Cell Based Secondary Assay To Explore Cytotoxicity of Compounds that Sensitize Mycobacterium Tuberculosis to Beta-Lactam Antibiotics.; type: functional
Caspase-3 = molecular target: T1, Caspase-3 (Homo sapiens, UniProt P42574); type: functional;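 also: Dose-response selectivity test against caspase-3 for candidate inhibitors of sentrin-specific proteases (SENPs)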
T1 sequence (P42574 whole entry): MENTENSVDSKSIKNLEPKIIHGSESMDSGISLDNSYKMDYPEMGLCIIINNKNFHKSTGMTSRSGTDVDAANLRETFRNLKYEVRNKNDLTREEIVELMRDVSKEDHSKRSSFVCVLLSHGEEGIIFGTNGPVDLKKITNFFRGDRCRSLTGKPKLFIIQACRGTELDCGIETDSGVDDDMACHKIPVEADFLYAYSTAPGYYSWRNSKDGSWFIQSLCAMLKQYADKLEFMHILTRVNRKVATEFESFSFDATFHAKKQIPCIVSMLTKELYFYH

[2] = molecular target: T2, Sentrin-specific protease 6 (Homo sapiens, UniProt Q9GZR1); type: functional;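 also: Luminescence-based dose-response confirmatory assay of SENP6 inhibition, following up an ultra-high-throughput screen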
T2 sequence (Q9GZR1 whole entry): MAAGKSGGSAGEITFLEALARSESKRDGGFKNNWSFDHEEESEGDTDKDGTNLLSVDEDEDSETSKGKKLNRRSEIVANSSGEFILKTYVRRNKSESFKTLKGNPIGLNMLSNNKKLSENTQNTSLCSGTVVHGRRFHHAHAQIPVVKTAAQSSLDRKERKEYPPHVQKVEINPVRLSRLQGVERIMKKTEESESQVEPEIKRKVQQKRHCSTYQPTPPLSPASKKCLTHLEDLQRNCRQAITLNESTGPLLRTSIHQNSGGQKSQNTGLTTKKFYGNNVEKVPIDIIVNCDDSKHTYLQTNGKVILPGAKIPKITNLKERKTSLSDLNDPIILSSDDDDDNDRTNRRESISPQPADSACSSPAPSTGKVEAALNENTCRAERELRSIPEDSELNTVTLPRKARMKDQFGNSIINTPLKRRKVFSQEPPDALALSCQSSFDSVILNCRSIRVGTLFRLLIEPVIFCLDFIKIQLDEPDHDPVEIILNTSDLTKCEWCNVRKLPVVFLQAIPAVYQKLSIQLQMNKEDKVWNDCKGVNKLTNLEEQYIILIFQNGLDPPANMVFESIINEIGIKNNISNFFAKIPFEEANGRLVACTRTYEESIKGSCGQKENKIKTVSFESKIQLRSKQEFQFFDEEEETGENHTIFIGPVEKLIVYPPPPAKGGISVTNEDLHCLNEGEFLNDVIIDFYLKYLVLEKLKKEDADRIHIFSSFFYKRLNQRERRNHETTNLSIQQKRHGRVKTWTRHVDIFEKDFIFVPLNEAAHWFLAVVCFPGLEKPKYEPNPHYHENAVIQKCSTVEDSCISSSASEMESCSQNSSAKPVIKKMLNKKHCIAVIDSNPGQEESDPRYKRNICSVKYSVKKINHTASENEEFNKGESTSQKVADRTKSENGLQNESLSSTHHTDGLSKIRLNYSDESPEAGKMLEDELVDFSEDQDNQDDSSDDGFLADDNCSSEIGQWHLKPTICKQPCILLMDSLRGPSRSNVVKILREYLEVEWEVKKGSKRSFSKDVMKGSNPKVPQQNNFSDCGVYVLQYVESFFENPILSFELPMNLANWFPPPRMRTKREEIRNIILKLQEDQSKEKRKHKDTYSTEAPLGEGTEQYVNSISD

[3] = molecular target: T3, Sentrin-specific protease 7 (Homo sapiens, UniProt Q9BQF6); type: functional;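 also: Luminescence-based dose-response confirmation of ultra-high-throughput screening hits, measuring inhibition of SENP7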
T3 sequence (Q9BQF6 whole entry): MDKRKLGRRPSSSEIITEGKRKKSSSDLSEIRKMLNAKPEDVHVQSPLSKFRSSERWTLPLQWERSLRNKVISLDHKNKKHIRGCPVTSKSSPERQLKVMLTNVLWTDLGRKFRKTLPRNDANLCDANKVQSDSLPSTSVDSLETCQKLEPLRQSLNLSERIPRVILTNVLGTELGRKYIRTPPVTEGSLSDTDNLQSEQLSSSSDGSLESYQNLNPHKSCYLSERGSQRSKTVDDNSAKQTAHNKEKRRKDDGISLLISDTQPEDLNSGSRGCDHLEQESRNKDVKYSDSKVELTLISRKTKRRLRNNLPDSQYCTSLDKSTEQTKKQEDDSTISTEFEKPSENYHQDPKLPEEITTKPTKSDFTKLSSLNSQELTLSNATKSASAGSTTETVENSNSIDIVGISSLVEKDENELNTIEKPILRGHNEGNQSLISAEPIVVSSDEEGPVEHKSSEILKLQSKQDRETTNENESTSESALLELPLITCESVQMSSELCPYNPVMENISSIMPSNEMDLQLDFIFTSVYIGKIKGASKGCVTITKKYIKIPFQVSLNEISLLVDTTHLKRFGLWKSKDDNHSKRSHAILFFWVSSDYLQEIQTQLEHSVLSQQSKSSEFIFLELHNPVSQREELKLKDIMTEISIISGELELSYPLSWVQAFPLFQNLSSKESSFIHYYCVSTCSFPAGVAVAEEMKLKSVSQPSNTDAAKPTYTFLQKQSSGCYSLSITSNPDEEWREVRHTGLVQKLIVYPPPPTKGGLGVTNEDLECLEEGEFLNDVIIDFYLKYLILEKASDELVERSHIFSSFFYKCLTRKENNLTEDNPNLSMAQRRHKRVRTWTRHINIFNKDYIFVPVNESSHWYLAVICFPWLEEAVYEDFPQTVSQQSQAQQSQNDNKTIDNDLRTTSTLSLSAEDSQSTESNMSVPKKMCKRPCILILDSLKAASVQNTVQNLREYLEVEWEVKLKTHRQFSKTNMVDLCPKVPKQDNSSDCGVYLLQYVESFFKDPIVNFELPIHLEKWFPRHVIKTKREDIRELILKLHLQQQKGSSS

[4] = molecular target: T4, Sentrin-specific protease 8 (Homo sapiens, UniProt Q96LD8); type: functional;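 also: luminescence read-out of SENP8 inhibition, dose-response confirmation following an ultra-high-throughput screen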
T4 sequence (Q96LD8 whole entry): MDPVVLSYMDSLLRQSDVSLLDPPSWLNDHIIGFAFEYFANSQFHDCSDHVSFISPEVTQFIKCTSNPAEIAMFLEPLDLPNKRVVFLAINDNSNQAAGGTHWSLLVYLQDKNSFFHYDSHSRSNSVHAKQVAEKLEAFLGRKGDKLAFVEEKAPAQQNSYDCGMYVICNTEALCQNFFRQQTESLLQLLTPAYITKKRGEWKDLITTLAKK

[5] = growth suppression of beta-catenin-knockout colon cells, dose response, cell-based, HCT116, human colon tumor (AID 1045); type: functional;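 also: HCT116 colon tumor cells with beta catenin knocked out; cells exposed to compound for 60 hours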
[6] = growth suppression of PTEN-null colon cells, dose response, cell-based, HCT116 PTEN knockout (AID 1047); type: functional;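 also: HCT116 colon tumor cells with PTEN knocked out; cells exposed to compound for 60 hours before readout; potency for loss of cell viability measured by luminescence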
[7] = molecular target: T5, Corticotropin-releasing factor receptor 2/Corticotropin-releasing factor-binding protein (Homo sapiens, UniProt P24387+Q13324); experiment: activators of CRF receptor 2 with binding protein – uHTS hits, confirmation (AID 602473); type: functional; conditions: read-out: EC50_Mean
T5 sequence (Q13324 whole entry): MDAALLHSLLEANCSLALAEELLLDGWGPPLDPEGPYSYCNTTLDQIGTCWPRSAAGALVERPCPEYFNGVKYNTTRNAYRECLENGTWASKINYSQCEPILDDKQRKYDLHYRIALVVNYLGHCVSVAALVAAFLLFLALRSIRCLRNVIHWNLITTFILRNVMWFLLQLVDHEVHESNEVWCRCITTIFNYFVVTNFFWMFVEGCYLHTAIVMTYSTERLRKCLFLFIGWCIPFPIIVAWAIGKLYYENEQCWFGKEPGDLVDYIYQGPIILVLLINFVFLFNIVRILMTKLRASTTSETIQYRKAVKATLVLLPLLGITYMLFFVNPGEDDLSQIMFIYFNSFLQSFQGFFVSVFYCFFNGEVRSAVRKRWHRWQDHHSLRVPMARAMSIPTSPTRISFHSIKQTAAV
T5 sequence (P24387 whole entry): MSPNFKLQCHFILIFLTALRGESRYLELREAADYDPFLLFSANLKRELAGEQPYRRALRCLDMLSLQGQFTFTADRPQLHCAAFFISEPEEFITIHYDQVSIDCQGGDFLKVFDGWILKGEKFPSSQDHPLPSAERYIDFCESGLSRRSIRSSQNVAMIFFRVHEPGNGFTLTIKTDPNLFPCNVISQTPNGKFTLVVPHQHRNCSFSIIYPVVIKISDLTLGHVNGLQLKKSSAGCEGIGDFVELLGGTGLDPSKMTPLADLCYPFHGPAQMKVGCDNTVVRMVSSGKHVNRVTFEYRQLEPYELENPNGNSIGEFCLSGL

[8] = CRF-BP/CRF-R2 complex antagonists, dose response, cell-based, uHTS hits, 384-well (AID 651639); type: functional, Homo sapiens; conditions: read-out: IC50_Mean
[9] = molecular target: T5, Corticotropin-releasing factor receptor 2/Corticotropin-releasing factor-binding protein; experiment: Dose Response confirmation of uHTS hits for small molecule antagonists of the CRF-binding protein and CRF-R2 receptor complex.; type: functional; conditions: read-out: IC50_Mean
[10] = C. albicans growth with fluconazole, confirmation, fluorescence, retest (AID 2467); type: functional, cell-based
[11] = NIH-3T3 fibroblast cytotoxicity, dose response, cytotoxicity control, cell-based, fluorescence, Alamar Blue, secondary assay (AID 2327); type: functional;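 also: NIH-3T3 mouse fibroblasts cultured with fluconazole at 8 µg/mL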
[12] = inhibitors of intracellular T. cruzi replication, confirmation, NIH3T3 host cells, beta-gal luminescence (AID 2044); type: functional, cell-based;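 also: intracellular parasites grown in NIH/3T3 mouse fibroblasts as host cells; luminescent beta-galactosidase reporter signal from transgenic T. cruzi replicating inside host cells; inhibitors lower the luminescence signal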
[13] = Luminescence Cell-Based Dose Response HTS to Identify Inhibitors of 5'UTR Stem-Loop Driven Prion Protein mRNA Translation in H4 Neuroglioblastoma Cells. [Related pubchem assays: 1827 (Project Summary), 1813 (Primary HTS)]; type: functional
[14] = inhibitors of SNCA 5'UTR-driven reporter translation, confirmation, H4 neuroglioma cells, luminescence (AID 1988); type: functional, cell-based
[15] = cytotoxicity toward NIH3T3 fibroblasts, dose response, counter-screen, cell-based, ATP luminescence, mouse fibroblasts (AID 2010); type: functional;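 also: cells exposed to compound for about 90 hours before reading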
[16] = inhibitors of firefly luciferase expression or activity, dose response, H4 neuroglioma cells, luminescence (AID 1990); type: functional, cell-based
Protein skinhead-1 = molecular target: T6, Protein skinhead-1 (Caenorhabditis elegans, UniProt P34707); type: functional
T6 sequence (P34707 whole entry): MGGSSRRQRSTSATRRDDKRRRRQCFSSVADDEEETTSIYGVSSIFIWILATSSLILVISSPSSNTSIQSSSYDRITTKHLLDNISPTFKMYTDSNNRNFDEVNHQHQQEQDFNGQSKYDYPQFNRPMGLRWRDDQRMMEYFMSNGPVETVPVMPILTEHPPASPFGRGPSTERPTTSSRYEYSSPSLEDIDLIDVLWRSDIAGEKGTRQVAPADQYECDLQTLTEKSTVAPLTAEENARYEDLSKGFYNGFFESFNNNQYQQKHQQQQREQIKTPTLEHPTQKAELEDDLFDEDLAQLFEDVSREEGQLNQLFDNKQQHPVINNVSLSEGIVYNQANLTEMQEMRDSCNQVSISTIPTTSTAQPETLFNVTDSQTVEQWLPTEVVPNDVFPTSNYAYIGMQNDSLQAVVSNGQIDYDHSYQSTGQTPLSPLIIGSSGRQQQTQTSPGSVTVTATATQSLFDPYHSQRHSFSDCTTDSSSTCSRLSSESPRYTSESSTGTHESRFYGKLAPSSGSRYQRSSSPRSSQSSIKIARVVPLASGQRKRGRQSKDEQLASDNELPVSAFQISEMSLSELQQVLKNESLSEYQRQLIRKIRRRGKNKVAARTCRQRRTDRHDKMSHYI

[17] = Luminescence Cell-Based Dose Retest to Confirm Inhibitors of Cancer Stem Cells. [Related pubchem assays (depositor defined):AID2717, AID2721]; type: functional; conditions: Homo sapiens
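For AC50 in this document: cells exposed to compound for roughly 70 hours or longer before luminescence read.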

## COc1ccc2oc(=N)c(C(=O)Nc3ccccc3)cc2c1
[1]
  CC50: > 40 µM (active)

## CCOC(=O)/C=C/c1ccc2oc3ccccc3c(=O)c2c1
Caspase-3
  IC50: 12.2 µM (active)
[2]
  IC50: 16.6 µM (active)
[3]
  IC50: 3.46 µM (active)
[4]
  IC50: 42.7 µM (active)

## O=C(Nc1cccc(S(=O)(=O)N2CCCCC2)c1)Nc1ccc(Cl)cc1Cl
[5]
  EC50: 8.76 µM (active)
[6]
  EC50: 8.66 µM (active)

## Nc1ccccc1Oc1c(F)c(F)c(Oc2ccccc2N)c(F)c1F
[7]
  EC50: > 53 µM (inactive)
[8]
  IC50: > 20 µM (inactive)
[9]
  IC50: 4.08 µM (active)

## COc1cc(NC(=O)c2cccc(Br)c2)nc(OC)n1
Caspase-3
  IC50: 20.5 µM (active)
[2]
  IC50: 31 µM (active)
[3]
  IC50: 8.86 µM (active)
[4]
  IC50: 35.7 µM (active)

## O=C(CSc1ncnc2ccccc12)c1cccs1
Caspase-3
  IC50: 37.4 µM (active)
[2]
  IC50: 23.9 µM (active)
[3]
  IC50: 4.7 µM (active)
[4]
  IC50: 17.5 µM (active)

## CN(C)C1=NP(N(C)C)(N(C)C)=NC(c2ccccc2)=N1
[7]
  EC50: > 53 µM (inactive)
[8]
  IC50: > 20 µM (inactive)
[9]
  IC50: < 0.368 µM (active)

## COc1ccc([N+](=O)[O-])cc1NC(=O)c1ccccc1SC
[7]
  EC50: > 53 µM (inactive)
[8]
  IC50: 1.79 µM (active)
[9]
  IC50: 23 µM (active)

## Cc1cccc(C(=O)O/N=C/c2c(N3CCOCC3)n(C)c3ccccc23)c1
[10]
  EC50: 0.729 µM (active)
[5]
  EC50: 2.35 µM (active)
[11]
  EC50: > 150 µM (inactive)
[12]
  EC50: 3.22 µM (active)
[13]
  EC50: 10.8 µM (active)
[14]
  EC50: 9.98 µM (active)
[6]
  EC50: 2.47 µM (active)
[15]
  EC50: 8.96 µM (active)
[16]
  EC50: > 120 µM (not active)

## Cc1ccc(-c2nc3sc4c(c3c(=O)n2N)CCCC4)cc1
Caspase-3
  IC50: 12.7 µM (active)
[2]
  IC50: 18.2 µM (active)
[3]
  IC50: 5.25 µM (active)
[4]
  IC50: > 100 µM (inactive)

## COCCn1c(=O)[nH]c(=O)c2c1nc(-c1ccc(-c3ccc(Cl)cc3[N+](=O)[O-])o1)n2Cc1ccccc1
[5]
  EC50: 19.4 µM (active)
[6]
  EC50: 17.3 µM (active)

## COC(=O)CNC(c1ccccc1Cl)c1cc(Br)ccc1NC(=O)CCN1CCOCC1 (stereo not drawn)
[1]
  CC50: > 40 µM (active)
Protein skinhead-1
  IC50: > 100 µM (inactive)

## CCN1CCN(c2cc(-c3ccccc3)nc3cc(-c4cccc(F)c4)nn23)CC1
[5]
  EC50: 11.1 µM (active)
[6]
  EC50: 13.8 µM (active)
[17]
  AC50: 5.42 µM (active)

## N#Cc1cccc(NC(=O)Nc2cccs2)c1
[7]
  EC50: > 53 µM (inactive)
[8]
  IC50: > 20 µM (inactive)
[9]
  IC50: < 0.368 µM (active)

## CCCOc1ccc(C(=O)CCN2CCCCC2)cc1
[1]
  CC50: > 40 µM (active)
